Measurements taken from patent publication US20240043372A1, “SUBSTITUTED AROMATIC COMPOUNDS AND PHARMACEUTICAL COMPOSITIONS THEREOF” (PHARMACEUTIQUE INGENEW INC., priority 2020, published 2024).
Entries after “also recorded” stand apart in the source; their conditions may differ.

Experiments:
[1] = system: PC-3 cells (human prostate cancer cells); assay: PC-3 cell proliferation (MTT); format: cell-based; conditions: 24 hours
Method: Antiproliferative activity of representative compounds on cancer cells was also undertaken by using PC-3 cells (human prostate cancer cells). PC-3 cells were cultured for 24 hours in 96-well plates with or without Compounds or Positive Control (PCtrl: sodium 2-(2-hydroxy-3,5-dipentylphenyl)acetate) or Setogepram CAS No.: 1002101-19-0 from MedChemExpress LLC, USA) at various concentrations. The last four hours of incubation, 50 μl of a freshly made solution of MTT at 2 mg/ml in PBS were added. Cells were harvested, 150 μl of DMSO were added to solubilize the formazan crystal formed and the plates were read the plate at 570 nm.

[2] = system: PDX-fragments from IPF lungs; assay: Avatar CAM model, PDX-IPF lung fragments (volume, Masson's trichrome); format: in vivo, human; conditions: for collagen deposition in the PDX-IPF fragment: FIG. 5, Masson's trichrome staining
Method: Avatar CAM model was also used to determine the antifibrotic activity of the representative compounds. Briefly, fertilized eggs from white leghorn chicken were used and incubated in an Ova-Easy egg incubator at 37° C. with 60% humidity. At day 3, eggs were cracked. At day 9, PDX-fragments from IPF lungs were grafted on top of the CAM and were returned to the incubator. Treatment by intravenous injection of compounds was performed at day 11 and at day 16, chick embryos were killed by decapitation. IPF-PDX fragments were removed and volumes were calculated using the formula: (Dd^2/3). Fibrosis was determined by a Masson's trichrome staining.

[3] = system: human renal carcinoma Caki cells; assay: Avatar CAM assay, Caki tumour; format: in vivo; conditions: for Anticancer Activity Caki: Avatar CAM, tumour volume at day 16, symbols X to XXXX not defined; for anticancer activity relative to Sorafenib: FIG. 2, Caki cells in CAM Avatar model
Method: (§1) In this example, representative compounds of the present disclosure were tested for their respective effect on tumors using a model of Avatar Chick Chorioallantoic Membrane (CAM) assay. CAM assays have been widely used to study angiogenesis and tumor invasion of colorectal, prostate and brain cancers, as well as for studying patient-derived xenograft for potential personalized medicine.
(§2) The present inventor has tested representative compounds from the present disclosure or a Positive Control (PCtrl: sodium 2-(2-hydroxy-3,5-dipentylphenyl)acetate) as per the following. Fertilized eggs from white leghorn chicken were used and incubated in an Ova-Easy egg incubator at 37° C. with 60% humidity. At day 3, eggs were cracked. At day 9, U87 (human glioblastoma) cell suspensions (1×10^6 cells), or Caki cells or patient-derived xenograph (glioblastoma fragment) were mixed (1:1) with growth factor reduced Matrigel™ in a total volume of 20 μl for cell lines and POX-patient fragments were placed directly on top of the CAM and were returned to the incubator. Intravenous injection at day 11 or topical administration (Day 11 to Day 16) with or without the compounds. At day 16, chick embryos were killed by decapitation. Tumours were removed and tumour volumes were calculated using the formula: (Dd^2/3).

human glioblastoma U87 = assay: Avatar CAM assay, U87 tumour; format: in vivo; conditions: for Anticancer Activity U87: Avatar CAM, tumour volume at day 16, symbols X to XXXX not defined
Method: as §1, §2

[4] = system: human fibrosarcoma HT1080 cell; assay: Avatar CAM assay, HT1080 tumour; format: in vivo; conditions: tumour volume at day 16, symbols X to XXXX not defined
[5] = system: carboplatin-resistant PDX glioblastoma (GBM20-75); assay: Avatar CAM assay, patient-derived xenograft glioblastoma; format: in vivo, human; conditions: FIG. 3, PDX glioblastoma resistant to carboplatin
Method: as §1, §2

Row | SMILES | inhibition at 12.5 µM [1] | inhibition at 25 µM [1] | inhibition at 50 µM [1] | inhibition at 100 µM [1] | inhibition at 200 µM [1] | further results
1 | CCCCCc1cccc(CC(=O)O)c1 [Setogepram, reference compound] | – | – | – | – | – | inhibition at 62.5 µM [1]: 16.8%; inhibition at 125 µM [1]: 5.7%; inhibition at 250 µM [1]: 10.4%; inhibition at 500 µM [1]: 0%; inhibition at 1000 µM [1]: 0%; collagen deposition in the PDX-IPF fragment [2]: reduce collagen deposition; also recorded: reduced the collagen deposition
2 | OCCc1cc(Cc2ccccc2)cc(Cc2ccccc2)c1 [Representative Compound 5] | 1.7% | 42.8% | 70.6% | 72.2% | 53% | Anticancer Activity Caki [3]: XXXX; anticancer activity relative to Sorafenib [3]: reach the anticancer activity of Sorafenib; Anticancer Activity U87 (human glioblastoma U87): XXXX; anticancer activity relative to carboplatin (human glioblastoma U87; FIG. 1, U87 in CAM Avatar model): reached the anticancer activity of carboplatin; Anticancer Activity HT1080 [4]: XXX
3 | CCCCCc1cc(CCO)c(N)c(CCCCC)c1 [Representative Compound 3] | 0% | 39.1% | 67.4% | 62.1% | 65.8% | –
4 | N.N.O=C([O-])C1(C(=O)[O-])CCC1.[Pt+2] [carboplatin, reference compound] | – | – | – | – | – | growth (volume) response of PDX glioblastoma to treatment [5]: effectively resistant
5 | CCCCCc1cccc(CCO)c1 [Representative Compound 4] | – | – | – | – | – | inhibition at 62.5 µM [1]: 26.1%; inhibition at 125 µM [1]: 30.3%; inhibition at 250 µM [1]: 74.2%; inhibition at 500 µM [1]: 72.9%; inhibition at 1000 µM [1]: 70.4%; Antifibrotic Activity PDX (IPF lungs) ([2]; Avatar CAM, reduction of volume growth of PDX-IPF fragments, symbols not defined): XXXX; volume of the PDX-IPF fragments ([2]; FIG. 4, intravenous injection at day 11, volume at day 16): reduces significantly the volume; collagen deposition in the PDX-IPF fragment [2]: reduce collagen deposition; Anticancer Activity HT1080 [4]: XXX
6 | CCCCCc1cc(CCO)c(O)c(CCCCC)c1 [Representative Compound 2] | 0% | 63.6% | 70% | 72.2% | 66.3% | Anticancer Activity Caki [3]: XXXX; anticancer activity relative to Sorafenib [3]: reach the anticancer activity of Sorafenib; Anticancer Activity U87 (human glioblastoma U87): XXX; growth (volume) response of PDX glioblastoma to treatment [5]: does not respond
7 | CCCCCc1cc(CCCCC)c(O)c(CC(N)=O)c1 [Representative Compound 1] | 0% | 0% | 0% | 0% | 0% | –
8 | CCCCCc1cc(CCCCC)c(O)c(CC(=O)O)c1 [PCtrl, sodium 2-(2-hydroxy-3,5-dipentylphenyl)acetate, reference compound] | 0% | 0% | 0% | 0% | 20% | –
